Experimental data from patent publication US20230405003A1, “APPLICATION OF THYMIDINE DERIVATIVE IN PREPARATION OF DRUGS” (ONQUALITY PHARMACEUTICALS CHINA LTD., priority 2020, published 2023).

Experiments:
HaCaT cells = test: Relief of 5-FU proliferative toxicity to HaCaT cells (CCK-8 cell survival); format: cell-based; details: for Cell Survival Rate (increased percentage of cell survival compared with the Group of 5-FU): 5-Fu 20 μM, HaCaT cells; for activation at 1 µM / activation at 10 µM / activation at 100 µM / activation at 500 µM / activation at 1000 µM: Homo sapiens, HaCaT, increase vs Group of 5-FU, 5-FU 20 μM, 48 h, read-out: Cell Survival Rate; for activation at 1 µM: compound 1 μM; for activation at 10 µM: compound 10 μM; for activation at 100 µM: compound 100 μM; for activation at 500 µM: compound 500 μM; for activation at 1000 µM: compound 1000 μM
Description: The cultured skin cell HaCaTs were digested, counted, and inoculated into a 96-well plate with 5000-10000 cells in each well. After 24 h of culture, the wells were divided into Group of blank solvent control, Group of 5-FU, Group of 5-FU+thymidine derivative, Group of 5-FU+the combination of thymidine derivative and uridine derivative. […] adding a solution of 5-FU and a solution of thymidine derivative (the final concentrations of 5-FU and thymidine derivative are shown in Table 3, the solution of thymidine is an aqueous solution, while the solutions of thymidine derivatives are all DMSO solutions); Group of 5-FU+the combination of thymidine derivative and uridine derivative: adding a solution of 5-FU and a mixed solution of thymidine derivative and uridine derivative (the final concentrations of the solution of 5-FU and the mixed solution of thymidine derivative+uridine derivative are shown in Table 3, the solution of thymidine is an aqueous solution, while the mixed solutions of thymidine derivative+uridine derivative are all DMSO solutions); Group of blank solvent control: adding the same type of solution as those of the corresponding Group of 5-FU or Group of 5-FU+thymidine derivative (or the mixed solution of thymidine derivative+uridine derivative) in equal volume. Group of blank solvent control was used as control to exclude the influence of the solvents in Group of 5-FU and Group of 5-FU+thymidine derivative (or the mixed solution of thymidine derivative+uridine derivative) on the results. After additional 48 hours of culture, a Cell Counting Kit-8 (CCK-8) detection kit (C0037, purchased from Shanghai Beyotime Biotechnology) is used to determine the cell survival rate, thereby calculating the proliferative toxicity of 5-Fu/5-DFUR on cells and the relieving effect of the thymidine derivative (or the mixed solution of thymidine derivative+uridine derivative) on the proliferative toxicity. Using GraphPad Prism 6.0 software, the results were statistically analyzed by t-test and plotted.
(§1) Table 3 lists the combinations of 5-FU and thymidine derivative (or the mixed solution of thymidine derivative+uridine derivative), and the corresponding experimental results (wherein the data in the column of cell survival indicate the corresponding increased percentage of the cell survivals of Group of 5-FU+thymidine derivative or Group of 5-FU+the combination of thymidine derivative and uridine derivative compared with the Group of 5-FU). FIGS. 3-10 list the experimental results of several representative compounds.
The effect of thymidine derivative or a combination of thymidine derivative and uridine derivative on relieving the proliferative toxicity of a chemotherapeutical drug (5-FU) to HaCaT cells was tested according to the method in Examples 2-29. The test thymidine derivative or the combination of thymidine derivative and uridine derivative, as well as the final concentration of the test compounds were shown in Table 7.
as §1, with “7” for “3”, “15-21” for “3-10”, “exemplary” for “representative”

[1] = test system: hand-foot syndrome caused by capecitabine in SD rats; test: Rat model of hand-foot syndrome caused by capecitabine, gel application; format: in vivo; details: capecitabine 4000 mg/kg once daily, 40 days; for Control Rate Forepaws / Control Rate Hindpaws: rats
Description: A rat animal model was established. 6-week aged female SD rats were administered with capecitabine by daily gavage. The degree of hand-foot syndrome in paws is similar, and there was no difference between the left and right paws. Similar to the human body, rats developed hand-foot syndrome after oral administration of capecitabine. The causes of the two are the same, and the disorder is also very similar. Therefore, rats are very good animal models for simulating the hand-foot syndrome caused by capecitabine.
After SD rats were fed and adapted for one week (about 200 g), the rats were divided into groups, with 10 rats in each group. Then, the rats were subject to gavage administration. Capecitabine was dissolved in a 1:1 mixed solution of castor oil and ethanol and diluted for three times with PBS buffer. After gavage, the rats were fixed with a fixed cylinder, and a gel of thymidine derivative (or a compounded gel of thymidine derivative and uridine derivative) was applied to double hind paws (about 1 cm*3 cm) of the rats in group of administration (the types and concentrations are shown in Table 4), and a blank gel was applied to the group of blank (as a blank control). After approximately 4 hours of application, the rats were released after 4 hours, wiped with clean water to remove any residual drug at the application site, and allowed back to the cage. The thymidine derivative gel (or the compounded gel of thymidine derivative and uridine derivative) was administered with gavage every day. The gavage and application tests are repeated daily until the group of blank has developed obvious hand-foot syndrome.
Table 4 lists the combinations of animal experiments of capecitabine and the thymidine derivative gel (or the compounded gel of thymidine derivative and uridine derivative) and the corresponding experimental results (wherein, the data in the column of control rate=the occurrence rate of hand-foot syndrome in group of blank—the occurrence rate of hand-foot syndrome in group of administration). […]

[2] = selected compound final concentration 0.8 μM
[3] = selected compound final concentration 1.6 μM
[4] = selected compound final concentration 3.13 μM
[5] = selected compound final concentration 6.25 μM
[6] = selected compound final concentration 12.5 μM
[7] = selected compound final concentration 25 μM
[8] = selected compound final concentration 50 μM
[9] = selected compound final concentration 100 μM

## Cc1ccc(Nc2c(F)cccc2Cl)c(CC(=O)OC[C@H]2O[C@@H](n3cc(C)c(=O)[nH]c3=O)C[C@@H]2O)c1 [T35]
HaCaT cells; [2]
  Cell Survival Rate (increased percentage of cell survival compared with the Group of 5-FU): 23%-31%
HaCaT cells; [3]
  Cell Survival Rate (increased percentage of cell survival compared with the Group of 5-FU): 25%-33%
HaCaT cells; [4]
  Cell Survival Rate (increased percentage of cell survival compared with the Group of 5-FU): 42%-48%
HaCaT cells; [5]
  Cell Survival Rate (increased percentage of cell survival compared with the Group of 5-FU): 64%-70%
HaCaT cells; [6]
  Cell Survival Rate (increased percentage of cell survival compared with the Group of 5-FU): 95%-101%
HaCaT cells; [7]
  Cell Survival Rate (increased percentage of cell survival compared with the Group of 5-FU): 84%-91%
HaCaT cells; [8]
  Cell Survival Rate (increased percentage of cell survival compared with the Group of 5-FU): 85%-92%
HaCaT cells; [9]
  Cell Survival Rate (increased percentage of cell survival compared with the Group of 5-FU): 39%-47%
[1]; gel 1 wt%
  Control Rate Forepaws: 25%
  Control Rate Hindpaws: 37.50%
[1]; gel 5 wt%
  Control Rate Forepaws: 75.00%
  Control Rate Hindpaws: 88%

## Cc1cn([C@H]2C[C@H](OC(=O)[C@@H](C)c3ccc(CC(C)C)cc3)[C@@H](COC(=O)[C@@H](C)c3ccc(CC(C)C)cc3)O2)c(=O)[nH]c1=O [T47]
HaCaT cells; selected compound final concentration 8 μM
  Cell Survival Rate (increased percentage of cell survival compared with the Group of 5-FU): 21%-28%
HaCaT cells; selected compound final concentration 16 μM
  Cell Survival Rate (increased percentage of cell survival compared with the Group of 5-FU): 35%-42%
HaCaT cells; selected compound final concentration 32 μM
  Cell Survival Rate (increased percentage of cell survival compared with the Group of 5-FU): 49%-56%
HaCaT cells; selected compound final concentration 62.5 μM
  Cell Survival Rate (increased percentage of cell survival compared with the Group of 5-FU): 63%-71%
HaCaT cells; selected compound final concentration 125 μM
  Cell Survival Rate (increased percentage of cell survival compared with the Group of 5-FU): 64%-72%
HaCaT cells; selected compound final concentration 250 μM
  Cell Survival Rate (increased percentage of cell survival compared with the Group of 5-FU): 44%-51%
HaCaT cells; selected compound final concentration 500 μM
  Cell Survival Rate (increased percentage of cell survival compared with the Group of 5-FU): 24%-31%

## Cc1cn([C@H]2C[C@H](OC(=O)C(C)C)[C@@H](COC(=O)C(C)C)O2)c(=O)[nH]c1=O [T13]
HaCaT cells
  activation at 1 µM: 15 to 25%
  activation at 10 µM: 40 to 50%
  activation at 100 µM: 25 to 35%

## Cc1cn([C@H]2C[C@H](O)[C@@H](COC(=O)C3CCn4c(C(=O)c5ccccc5)ccc43)O2)c(=O)[nH]c1=O (some centres unmarked) [T34]
HaCaT cells; [6]
  Cell Survival Rate (increased percentage of cell survival compared with the Group of 5-FU): 28%-35%
HaCaT cells; [7]
  Cell Survival Rate (increased percentage of cell survival compared with the Group of 5-FU): 43%-51%
HaCaT cells; [8]
  Cell Survival Rate (increased percentage of cell survival compared with the Group of 5-FU): 69%-77%
HaCaT cells; [9]
  Cell Survival Rate (increased percentage of cell survival compared with the Group of 5-FU): 67%-74%

## Cc1cn([C@H]2C[C@H](OC(=O)NC3CC3)[C@@H](COC(=O)NC3CC3)O2)c(=O)[nH]c1=O [T15]
HaCaT cells
  activation at 1 µM: 13 to 20%
  activation at 10 µM: 13 to 20%
  activation at 100 µM: 20 to 30%
  activation at 500 µM: 25 to 35%
  activation at 1000 µM: 9 to 16%

## COc1ccc2cc([C@H](C)C(=O)O[C@H]3C[C@H](n4cc(C)c(=O)[nH]c4=O)O[C@@H]3CO)ccc2c1 [T42]
HaCaT cells; [2]
  Cell Survival Rate (increased percentage of cell survival compared with the Group of 5-FU): 38%-45%
HaCaT cells; [3]
  Cell Survival Rate (increased percentage of cell survival compared with the Group of 5-FU): 59%-67%
HaCaT cells; [4]
  Cell Survival Rate (increased percentage of cell survival compared with the Group of 5-FU): 85%-93%
HaCaT cells; [5]
  Cell Survival Rate (increased percentage of cell survival compared with the Group of 5-FU): 85%-92%
HaCaT cells; [6]
  Cell Survival Rate (increased percentage of cell survival compared with the Group of 5-FU): 58%-66%
HaCaT cells; [7]
  Cell Survival Rate (increased percentage of cell survival compared with the Group of 5-FU): 68%-75%
HaCaT cells; [8]
  Cell Survival Rate (increased percentage of cell survival compared with the Group of 5-FU): 66%-74%

## CCC(=O)OC[C@H]1O[C@@H](n2cc(C)c(=O)[nH]c2=O)C[C@@H]1OC(=O)CC [T5]
HaCaT cells
  activation at 1 µM: 18 to 24%
  activation at 10 µM: 55 to 65%
  activation at 100 µM: 77 to 84%
  activation at 500 µM: 78 to 85%
  activation at 1000 µM: 35 to 45%
[1]; SD rats, gel 2 wt% on hind paws
  Control Rate: 30.00%
